Measured values as given in PubChem BioAssay (NCI).
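Protocol summary: plate cells (96-well), add compound at 5 concentrations, incubate 48 h, interpolate endpoints linearly. Here, GI50 denotes the concentration required for 50% inhibition of growth. TGI marks complete inhibition of growth.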

Assays:
Assay in all cases: NCI-60 cell line screen, 48 h
786-0 renal = tested on: 786-0 renal
A498 renal = tested on: A498 renal
A549 NSCLC = tested on: A549 NSCLC
ACHN renal = tested on: ACHN renal
BT-549 breast = tested on: BT-549 breast
CAKI-1 renal = tested on: CAKI-1 renal
CCRF-CEM leukemia = tested on: CCRF-CEM leukemia
COLO 205 colon = tested on: COLO 205 colon
DU-145 prostate = tested on: DU-145 prostate
EKVX NSCLC = tested on: EKVX NSCLC
HCC-2998 colon = tested on: HCC-2998 colon
HCT-116 colon = tested on: HCT-116 colon
HCT-15 colon = tested on: HCT-15 colon
HL-60(TB) leukemia = tested on: HL-60(TB) leukemia
HOP-62 NSCLC = tested on: HOP-62 NSCLC
HOP-92 NSCLC = tested on: HOP-92 NSCLC
HS 578T breast = tested on: HS 578T breast
HT29 colon = tested on: HT29 colon
IGROV1 ovarian = tested on: IGROV1 ovarian
K-562 leukemia = tested on: K-562 leukemia
KM12 colon = tested on: KM12 colon
LOX IMVI melanoma = tested on: LOX IMVI melanoma
M14 melanoma = tested on: M14 melanoma
MALME-3M melanoma = tested on: MALME-3M melanoma
MCF7 breast = tested on: MCF7 breast
MDA-MB-231 breast = tested on: MDA-MB-231 breast
MDA-MB-435 = tested on: MDA-MB-435
NCI-H226 lung = tested on: NCI-H226 lung
NCI-H23 lung = tested on: NCI-H23 lung

C#C[C@]1(O)CC[C@H]2[C@@H]3CC=C4c5sc(-c6cccc(O)c6)nc5CC[C@]4(C)[C@H]3CC[C@@]21C
GI50 (786-0 renal): 386 nM | TGI (786-0 renal): 1880 nM | GI50 (A498 renal): 15200 nM | TGI (A498 renal): 32500 nM | GI50 (A549 NSCLC): 2570 nM | TGI (A549 NSCLC): 11000 nM | GI50 (ACHN renal): 687 nM | TGI (ACHN renal): 6720 nM | GI50 (BT-549 breast): 1070 nM | TGI (BT-549 breast): 3470 nM | GI50 (CAKI-1 renal): 2250 nM | TGI (CAKI-1 renal): 5150 nM | GI50 (CCRF-CEM leukemia): 339 nM | TGI (CCRF-CEM leukemia): > 100000 nM | GI50 (COLO 205 colon): 5410 nM | TGI (COLO 205 colon): 20800 nM | GI50 (DU-145 prostate): 2450 nM | TGI (DU-145 prostate): 17500 nM | GI50 (EKVX NSCLC): 2500 nM | TGI (EKVX NSCLC): 10700 nM | GI50 (HCC-2998 colon): 1810 nM | TGI (HCC-2998 colon): 5120 nM | GI50 (HCT-116 colon): 993 nM | TGI (HCT-116 colon): 3000 nM | GI50 (HCT-15 colon): 505 nM | TGI (HCT-15 colon): 1940 nM | GI50 (HL-60(TB) leukemia): 835 nM | TGI (HL-60(TB) leukemia): 6120 nM | GI50 (HOP-62 NSCLC): 1480 nM | TGI (HOP-62 NSCLC): 4390 nM | GI50 (HOP-92 NSCLC): 1450 nM | TGI (HOP-92 NSCLC): 3070 nM | GI50 (HS 578T breast): 207 nM | TGI (HS 578T breast): 642 nM | GI50 (HT29 colon): 3170 nM | TGI (HT29 colon): 10800 nM | GI50 (IGROV1 ovarian): 2980 nM | TGI (IGROV1 ovarian): 10300 nM | GI50 (K-562 leukemia): 506 nM | TGI (K-562 leukemia): > 100000 nM | GI50 (KM12 colon): 1150 nM | TGI (KM12 colon): 5000 nM | GI50 (LOX IMVI melanoma): 269 nM | TGI (LOX IMVI melanoma): 1260 nM | GI50 (M14 melanoma): 252 nM | TGI (M14 melanoma): 671 nM | GI50 (MALME-3M melanoma): 421 nM | TGI (MALME-3M melanoma): 2980 nM | GI50 (MCF7 breast): 1560 nM | TGI (MCF7 breast): 4390 nM | GI50 (MDA-MB-231 breast): 1050 nM | TGI (MDA-MB-231 breast): 4100 nM | GI50 (MDA-MB-435): 1320 nM | TGI (MDA-MB-435): 3940 nM | GI50 (NCI-H226 lung): 5250 nM | TGI (NCI-H226 lung): 25000 nM | GI50 (NCI-H23 lung): 1550 nM
